This note sets out measurements from patent publication US8273752B2, “Substituted imidazopyrimidines and triazolopyrimidines” (Bayer Intellectual Property GmbH, priority 2007, dated 2012).

Counter-ions that a name gives are not always drawn.

The test deals with T1, GSK3β (Homo sapiens, UniProt P49841).
T1 construct: purchased Upstate xy
T1 sequence (P49841 whole entry, species assumed): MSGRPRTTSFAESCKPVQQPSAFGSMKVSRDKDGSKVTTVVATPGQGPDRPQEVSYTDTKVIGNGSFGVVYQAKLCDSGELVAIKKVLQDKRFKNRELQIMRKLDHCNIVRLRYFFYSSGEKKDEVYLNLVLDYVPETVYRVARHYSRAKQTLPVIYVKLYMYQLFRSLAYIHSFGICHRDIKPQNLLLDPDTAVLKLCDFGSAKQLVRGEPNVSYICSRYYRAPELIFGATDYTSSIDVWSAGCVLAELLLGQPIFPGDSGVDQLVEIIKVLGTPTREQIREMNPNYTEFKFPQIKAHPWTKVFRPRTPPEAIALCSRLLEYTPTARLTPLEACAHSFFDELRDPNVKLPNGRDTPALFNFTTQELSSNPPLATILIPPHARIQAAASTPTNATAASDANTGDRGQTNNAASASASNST
As to the kind of experiment: GSK3β biochemical in vitro assay (fluorescence, NADH-coupled). The note with it: 5 nM GSK3β, 40 μM substrate GSM, 50 μM ATP, 30° C., 2 hours. As to the method:
The inhibitory activity of active substances is determined in a biochemical assay. The ingredients required for this purpose are mixed in a black 384-well microtitre plate with transparent base (from Greiner, catalogue number 781092). The requirements in this connection for each well of the 384-well microtitre plate are 5 nM GSK3β (from Upstate, catalogue number xy), 40 μM GSK3B substrate GSM (sequence H-RRRPASVPPSPSLSRHS-(pS)-HQRR, from Upstate, catalogue number 2-533), 30 μM nicotinamide adenine dinucleotide NADH (Roche Diagnostics, catalogue number 10107735), 50 μM adenosine triphosphate ATP (from Sigma, catalogue number A7966), and 2 mM phosphoenolpyruvate (from Roche, catalogue number 128112). The required reaction buffer in which the biochemical reaction takes place consists of 50 mM Trizma hydrochloride tris-HCl pH: 7.5 (from Sigma, catalogue number T3253), 5 mM magnesium chloride MgCl2 (from Sigma, catalogue number M8266), 0.2 mM DL-dithiothreitol DTT (from Sigma, catalogue number D9779), 2 mM ethylenediaminethertetraacid EDTA (from Sigma, catalogue number E6758), 0.01% Triton X-100 (from Sigma, catalogue number T8787) and 0.05% bovine serum albumin BSA (from Sigma, catalogue number B4287).
Active substances are dissolved in dimethyl sulphoxide DMSO (from Sigma, catalogue number D8418) in a concentration of 10 mM. Active substances are added in serial concentrations of 10 μM, 1 μM, 0.1 μM, 0.01 μM, 0.001 μM, 0.0001 μM, 0.00001 μM, 0.000001 μM to the mixtures of the biochemical reaction. As control, dimethyl sulphoxide is added instead of substance in a final concentration of 0.1%.
The reaction is incubated at 30° C. for 2 hours and then the resulting fluorescence is measured in a Tecan Safire-XFLUOR4 instrument, version V4.50 (serial number 12901300283) with the specifications: measurement mode—fluorescence measured from below, extinction wavelength 340 nm, emission wavelength 465 nm, slit width extinction 5 nm, slit width emission 5 nm, gain mode 120, delay 0 μs, number of light flashes per measurement 3, and an integration time of 40 μs.
The activity of the active substances is calculated in relation to these 0% and 100%.
Usually IC50 stands for the concentration that gives 50% inhibition. Higher therefore signals weaker potency. `CN(C)Cc1cn2c(NCCNc3ccc([N+](=O)[O-])c(N)n3)nc(-c3ccc(Cl)cc3Cl)cc2n1` [Example 147, N^6-[2-({7-(2,4-Dichlorophenyl)-2-[(dimethylamino)methyl]imidazo[1,2-c]pyrimidin-5-yl}amino)-ethyl]-3-nitropyridine-2,6-diamine trifluoroacetate] came in with an IC50 of 24 nM.
For the molecule `CN1CCN(CCNC(=O)c2cn3c(NCCNc4ccc(C#N)cn4)nc(-c4ccc(Cl)cc4Cl)cc3n2)CC1` [Example 113], the IC50 worked out at 41 nM. This IC50 lies about 1.7-fold higher than the previous one.
As for `N#Cc1ccc(NCCNc2nc(-c3ccc(C(F)(F)F)cc3)cc3nc(C(=O)NCCO)cn23)nc1` [Example 117], the half-maximal inhibitory concentration (IC50) is 94 nM.
For `N#Cc1ccc(NCCNc2nc(-c3ccc(Cl)cc3Cl)cc3ncc(Br)n23)nc1` [Example 153, 6-[(2-{[3-Bromo-7-(2,4-dichlorophenyl)imidazo[1,2-c]pyrimidin-5-yl]amino}ethyl)amino]-pyridine-3-carbonitrile], the half-inhibitory concentration (IC50) was 14 nM.
Next, `Nc1nc(NCCNc2nc(-c3ccc(C(F)(F)F)cc3)cc3nccn23)ccc1[N+](=O)[O-]` [Example 66]: 196 nM.
